One assay deals with T1, KCNQ2/3 channels (Homo sapiens, UniProt O43525+O43526).
T1 construct: expressed in transfected cells; host or cells: CHO-K1 cells, kept under selection antibiotics
Briefly: Fluorescence assay using a voltage sensitive dye (fluorimetry). It is filed as cell-based. The conditions noted are these: CHO-K1 cells expressing KCNQ2/3 channels; for Emax: agonistic efficacy relative to retigabine = 100%. As to the method: Method I. Fluorescence Assay Using a Voltage Sensitive Dye
Human CHO-K1 cells expressing KCNQ2/3 channels are cultivated adherently at 37° C., 5% CO2 and 95% humidity in cell culture bottles (e.g. 80 cm^2 TC flasks, Nunc) with DMEM-high glucose (Sigma Aldrich, D7777) including 10% FCS (PAN Biotech, e.g. 3302-P270521) or alternatively MEM Alpha Medium (1×, liquid, Invitrogen, #22571), 10% fetal calf serum (FCS) (Invitrogen, #10270-106, heat-inactivated) and the necessary selection antibiotics.
Before being sown out for the measurements, the cells are washed with a 1× DPBS buffer without Ca^2+/Mg^2+ (e.g. Invitrogen, #14190-094) and detached from the bottom of the culture vessel by means of Accutase (PAA Laboratories, #L11-007) (incubation with Accutase for 15 min at 37° C.). The cell count then present is determined using a CASY™ cell counter (TCC model, Schärfe System) in order subsequently to apply, depending on the density optimization for the individual cell line, 20,000-30,000 cells/well/100 μl of the described nutrient medium to 96-well measuring plates of the Corning™ CellBIND™ type (Flat Clear Bottom Black Polystyrene Microplates, #3340). Incubation is then carried out for one hour at room temperature, without gassing or adjusting the humidity, followed by incubation for 24 hours at 37° C., 5% CO2 and 95% humidity.
The voltage-sensitive fluorescent dye from the Membrane Potential Assay Kit (Red™ Bulk format part R8123 for FLIPR, MDS Analytical Technologies™) is prepared by dissolving the contents of a vessel Membrane Potential Assay Kit Red Component A in 200 ml of extracellular buffer (ES buffer, 120 mM NaCl, 1 mM KCl, 10 mM HEPES, 2 mM CaCl2, 2 mM MgCl2, 10 mM glucose; pH 7.4). After removal of the nutrient medium, the cells are washed with 200 μl of ES buffer, then covered with a layer of 100 μl of the dye solution prepared above and incubated for 45 min at room temperature with the exclusion of light.
The fluorescence measurements are carried out with a BMG Labtech FLUOstar™, BMG Labtech NOVOstar™ or BMG Labtech POLARstar™ instrument (525 nm excitation, 560 nm emission, Bottom Read mode). After incubation of the dye, 50 μl of the test substances in the desired concentrations, or 50 μl of ES buffer for control purposes, are introduced into separate cavities of the measuring plate and incubated for 30 min at room temperature while being shielded from light. The fluorescence intensity of the dye is then measured for 5 min and the fluorescence value F1 of each well is thus determined at a given, constant time. 15 μl of a […] KCl solution ([…]) are then added to each well. The change in fluorescence is subsequently measured until all the relevant measured values have been obtained (mainly 5-30 min). At a given time after KCl application, a fluorescence value F2 is determined, in this case at the time of the fluorescence peak.
For calculation, the fluorescence intensity F2 is compared with the fluorescence intensity F1, and the agonistic activity of the target compound on the potassium channel is determined therefrom. F2 and F1 are calculated as follows: […]
A substance has an agonistic activity on the potassium channel when
[formula] is to be observed as the dosage of the target compound increases. Calculations of EC50 and IC50 values are carried out with the aid of ‘Prism v4.0’ software (GraphPad Software™).

The subject of assay [1] is withdrawal reflex of the rat tail (tail flick). Briefly: Low-intensity tail flick test (rat). It counts as in vivo. The following applies: dose 10.00 mg/kg (in brackets in the cell). The protocol:
Method II. Low-Intensity Tail Flick Test (Rat)
In the low-intensity tail flick test, the determination of the antinociceptive effect of the compounds according to the invention towards an acute noxious thermal stimulus is carried out by measuring the withdrawal reflex of the rat tail (tail flick) in response to a radiant heat beam (analgesia meter; model 2011 of the company Rhema Labortechnik, Hofheim, Germany) according to the method described by D'Amour and Smith (J. Pharm. Exp. Ther. 72, 74 79 (1941). To this end, the rats were placed in a plexiglas restrainer, and a low-intensity radiant heat beam (48° C.) was focused onto the dorsal surface of the tail root. The stimulus intensity was adjusted to result in a mean pre-drug control withdrawal latency of about 7 s, thus also allowing a supraspinal modulation of the spinally mediated acute nociceptive reflex. […] Before administration of a compound according to the invention, the animals were pre-tested twice in the course of five minutes and the mean of these measurements was calculated as the pre-test mean. The antinociceptive effect was determined at 20, 40 and 60 min after peroral compound administration. The antinociceptive effect was calculated based on the increase in the tail withdrawal latency according to the following formula and is expressed as percentage of the maximum possible effect (MPE [%]): MPE=[(T1−T0)/(T2−T0)]*100 […]
(In general: Thermal pain tests record how soon the animal reacts.)

The EC50 is the concentration at which the effect is half-maximal. Low values mean greater potency, high ones weaker potency. Broadly, the Emax is the maximal effect, on the per cent scale that the assay sets. On KCNQ2/3 channels, `Cc1c(C(=O)NCc2cccc(F)c2)n(C(C)C)c(=O)c2cc(C(F)(F)F)ccc12` [Example 4, N-(3-fluorobenzyl)-2-isopropyl-4-methyl-1-oxo-7-(trifluoromethyl)-1,2-dihydroisoquinoline-3-carboxamide] returned a half-maximal effective concentration (EC50) of 0.381 µM and an Emax of 144%.

On KCNQ2/3 channels, `Cc1c(C(=O)NCc2cccc(F)c2)n(C)c(=O)c2cc(C(F)(F)F)ccc12` [Example 1, N-(3-fluorobenzyl)-2,4-dimethyl-1-oxo-7-(trifluoromethyl)-1,2-dihydroisoquinoline-3-carboxamide] displayed an EC50 of 1.95 µM and an Emax of 164%.

On KCNQ2/3 channels, `COCCn1c(C(=O)NCc2cccc(F)c2)c(C)c2ccc(C(F)(F)F)cc2c1=O` [Example 5, N-(3-fluorobenzyl)-2-(2-methoxyethyl)-4-methyl-1-oxo-7-(trifluoromethyl)-1,2-dihydroisoquinoline-3-carboxamide] showed an EC50 of 0.283 µM and a maximal effect (Emax) of 87%.

On KCNQ2/3 channels, `CCCn1c(C(=O)NCc2cccc(F)c2)c(C)c2ccc(C(F)(F)F)cc2c1=O` [Example 2, N-(3-fluorobenzyl)-4-methyl-1-oxo-2-propyl-7-(trifluoromethyl)-1,2-dihydroisoquinoline-3-carboxamide] came in with an EC50 of 0.124 µM and an Emax of 134%. The “Low intensity tail flick, rat, peroral, % MPE (dose [mg/kg])” value in assay [1] is 10 (10.00) % MPE.

At KCNQ2/3 channels, `CCn1c(C(=O)NCc2cccc(F)c2)c(C)c2ccc(C(F)(F)F)cc2c1=O` [Example 3, 2-ethyl-N-(3-fluorobenzyl)-4-methyl-1-oxo-7-(trifluoromethyl)-1,2-dihydroisoquinoline-3-carboxamide] had an EC50 of 0.196 µM and a maximum response (Emax) of 103%.
